Read-outs that look alike come from different tables or passages of the source.
Test system: Onchocerca gutturosa Adult Male Worms
Test: Onchocerciasis in vitro screening model, worm motility score
Assay type: cell-based
Conditions: read-out: O. gutturosa activity level (IC50 or MED)
[1] = Onchocerca gutturosa, Table 1 O. gutturosa, levels A/B/C, motility or MTT readout not specified
[2] = in vitro, Onchocerca gutturosa adult male worms, class A/B/C

| SMILES | IC50 [1] [nM] | IC50 [2] [nM] |
| --- | --- | --- |
| CC(C)Oc1cnc(-c2nsc(Nc3ncccc3C(=O)N(C)C3CC3)n2)cc1C(F)(F)F [Compound 263, N-cyclo-propyl-2-(3-(5-isopropoxy-4-(trifluoro-methyl)pyridin-2-yl)-1,2,4-thiadiazol-5-ylamino)-N-methyl-nicotinamide] | – | 500 to 5000 |
| CC(=O)N(C)c1cc(C(F)(F)F)cnc1Nc1nc(-c2ccc(OC(C)C)nn2)ns1 [Compound 314, N-(2-(3-(6-isopropoxy-pyridazin-3-yl)-1,2,4-thiadiazol-5-ylamino)-5-(trifluoromethyl)pyridin-3-yl)-N-methylacetamide] | – | 500 to 5000 |
| COc1cnc(Nc2nc(-c3cc(C(N)=O)c(OC(C)C)cn3)ns2)c(C(F)(F)F)c1 [Compound 253, 5-isopropoxy-2-(5-(5-methoxy-3-(trifluoro-methyl)pyridin-2-ylamino)-1,2,4-thiadiazol-3-yl)isonico-tinamide] | – | 500 to 5000 |
| CC(=O)N(C)c1cccnc1Nc1nc(-c2ccc(NC34CC(C3)C4)cn2)ns1 [Compound 207, N-(2-(3-(5-(bicyclo [1.1.1]pentan-1-ylamino)pyridin-2-yl)-1,2,4-thiadiazol-5-ylamino)pyridin-3-yl)-N-methylacetamide] | – | 500 to 5000 |
| CC(C)Oc1cnc(-c2nsc(Nc3ncccc3N(C)C(=O)C3CC3)n2)cc1C(F)(F)F [Compound 186, N-(2-(3-(5-isopropoxy-4-(trifluoro-methyl)pyridin-2-yl)-1,2,4-thiadiazol-5-ylamino)pyridin-3-yl)-N-methylcyclo-propanecarbox-amide] | 500 to 5000 | – |
| Cc1cccnc1Nc1nc(-c2cnc(OC(C)C)cn2)ns1 [Compound 124, 3-(5-isopropoxy-pyrazin-2-yl)-N-(3-methyl-pyridin-2-yl)-1,2,4-thiadiazol-5-amine] | 200 to 500 | – |
| O=C1CCCN1c1cccnc1Nc1nc(-c2ccc(NC34CC(C3)C4)cn2)ns1 [Compound 204, 1-(2-(3-(5-(bicyclo [1.1.1]pentan-1-ylamino)pyridin-2-yl)-1,2,4-thiadiazol-5-ylamino)pyridin-3-yl)pyrrolidin-2-one] | – | 500 to 5000 |
| COc1cccnc1Nc1nc(-c2cc(C(F)(F)F)c(OC(C)C)cn2)ns1 [Compound 167, 3-(5-isopropoxy-4-(trifluoromethyl)pyridin-2-yl)-N-(3-methoxypyridin-2-yl)-1,2,4-thiadiazol-5-amine] | 200 to 500 | – |
| CC(C)Oc1cnc(-c2nsc(Nc3ncccc3N3CCCC3=O)n2)cc1C(F)(F)F [Compound 179, 1-(2-(3-(5-isopropoxy-4-(trifluoromethyl)pyridin-2-yl)-1,2,4-thiadiazol-5-ylamino)pyridin-3-yl)pyrrolidin-2-one] | 500 to 5000 | – |
| CC(C)Oc1ccc(-c2nsc(Nc3ncc(C(F)(F)F)cc3C(=O)N3CCCC3)n2)nc1 [Compound 328, (2-(3-(5-isoprop-oxypyridin-2-yl)-1,2,4-thiadiazol-5-ylamino)-5-(trifluoromethyl)pyridin-3-yl)(pyrrolidin-l-yl)methanone] | – | 500 to 5000 |
| c1ccc(-c2ccnc(Nc3nc(-c4ccccn4)ns3)c2)cc1 [Compound 237, N-(4-phenyl-pyridin-2-yl)-3-(pyridin-2-yl)-1,2,4-thiadiazol-5-amine] | – | 500 to 5000 |
| Cc1cccnc1Nc1nc(-c2ccc(OC3CC3)cn2)ns1 [Compound 38, 3-(5-cyclo-propoxypyridin-2-yl)-N-(3-methyl-pyridin-2-yl)-1,2,4-thiadiazol-5-amine] | < 200 | – |
| CC(C)Oc1ccc(-c2n[nH]c(Nc3ncccc3C(F)(F)F)n2)nc1 [Compound 70, N-(3-(5-isopropoxy-pyridin-2-yl)-1H-1,2,4-triazol-5-yl)-3-(trifluoromethyl) pyridin-2-amine] | 500 to 5000 | – |
| FC(F)(F)c1ccc(Nc2nc(-c3cc(OC4CCCCC4)ccn3)ns2)nc1 [Compound 213, 3-(4-(cyclo-hexyloxy)pyridin-2-yl)-N-(5-(trifluoromethyl)pyridin-2-yl)-1,2,4-thiadiazol-5-amine] | – | < 200 |
| Cc1cccnc1Nc1nnc(-c2cc(OC(C)C)ccn2)o1 [Compound 211, 5-(4-isopropoxy-pyridin-2-yl)-N-(3-methyl-pyridin-2-yl)-1,3,4-oxadiazol-2-amine] | – | 500 to 5000 |
| Cc1ccnc(Nc2nc(-c3ncccc3C)ns2)c1 [Compound 238, 3-(3-methyl-pyridin-2-yl)-N-(4-methyl-pyridin-2-yl)-1,2,4-thiadiazol-5-amine] | – | < 200 |
| CC(C)Oc1ccc(-c2nsc(Nc3ncc(C(F)(F)F)cc3S(=O)(=O)N(C)C)n2)nc1 [Compound 286, 2-(3-(5-isopropoxy-pyridin-2-yl)-1,2,4-thiadiazol-5-ylamino)-N,N-dimethyl-5-(trifluoromethyl) pyridine-3-sulfonamide] | – | 500 to 5000 |
| CC(=O)N(C)c1cc(C(F)(F)F)cnc1Nc1nc(-c2cc(OC(C)C)ccn2)ns1 [Compound 317, N-(2-(3-(4-isopropoxypyridin-2-yl)-1,2,4-thiadiazol-5-ylamino)-5-(trifluoromethyl)pyridin-3-yl)-N-methylacetamide] | – | < 200 |
| COc1ccc(-c2nnc(Nc3cc(OC(C)C)ccn3)[nH]2)nc1 [Compound 257, 4-isopropoxy-N-(5-(5-methoxy-pyridin-2-yl)-4H-1,2,4-triazol-3-yl)pyridin-2-amine] | – | 500 to 5000 |
| Cc1cccnc1Nc1nnc(-c2ccc(OC3CCOCC3)cn2)[nH]1 [Compound 258, 3-methyl-N-(5-(5-(tetrahydro-2H-pyran-4-yloxy)pyridin-2-yl)-4H-1,2,4-triazol-3-yl) pyridin-2-amine] | – | < 200 |
| CC(C)c1ccnc(-c2nsc(Nc3cc(C(F)(F)F)ccn3)n2)c1 [Compound 86, 3-(4-isopropyl-pyridin-2-yl)-N-(4-(trifluoromethyl)pyridin-2-yl)-1,2,4-thiadiazol-5-amine] | < 200 | – |
| CC(=O)N(C)c1cc(C(F)(F)F)cnc1Nc1nc(-c2cc3c(cn2)N(C)CC3)ns1 [Compound 249, N-methyl-N-(2-(3-(1-methyl-2,3-dihydro-1H-pyrrolo[2,3-c]pyridin-5-yl)-1,2,4-thiadiazol-5-ylamino)-5-(trifluoromethyl)pyridin-3-yl)acetamide] | – | 200 to 500 |
| CC(C)Oc1ccc(-c2nsc(Nc3ncccc3C(=O)N(C)C3CC3)n2)nc1 [Compound 262, N-cyclo-propyl-2-(3-(5-isopropoxy-pyridin-2-yl)-1,2,4-thiadiazol-5-ylamino)-N-methyl-nicotinamide] | – | 500 to 5000 |
| CN(C)c1cccnc1Nc1nc(-c2ccc(OC3CC3)cn2)ns1 [Compound 78, N2-(3-(5-cyclopropoxy-pyridin-2-yl)-1,2,4-thiadiazol-5-yl)-N3,N3-dimethyl-pyridine-2,3-diamine] | 500 to 5000 | – |

Further lines, with some results ahead:

| IC50 [1] [nM] | SMILES | IC50 [2] [nM] |
| --- | --- | --- |
| < 200 | Cc1cccnc1Nc1nc(-c2ccc(C(=O)N(C)C)cn2)ns1 [Compound 17, N,N-dimethyl-6-(5-(3-methylpyridin-2-ylamino)-1,2,4-thiadiazol-3-yl)nicotinamide] | – |
| < 200 | Cc1cccnc1Nc1nnc(-c2cc(C(C)C)ccn2)o1 [Compound 104, 5-(4-isopropyl-pyridin-2-yl)-N-(3-methyl-pyridin-2-yl)-1,3,4-oxadiazol-2-amine] | – |
| 500 to 5000 | COc1ccc(Nc2nnc(-c3ccc(OC(C)C)cn3)o2)nc1 [Compound 180, 5-(5-isopropoxy-pyridin-2-yl)-N-(5-methoxy-pyridin-2-yl)-1,3,4-oxadiazol-2-amine] | – |
| 500 to 5000 | Cc1cccnc1Nc1nc(-c2ccc(C(=O)NCC(F)(F)F)cn2)ns1 [Compound 60, 6-(5-(3-methyl-pyridin-2-ylamino)-1,2,4-thiadiazol-3-yl)-N-(2,2,2-trifluoroethyl) nicotinamide] | – |
| 500 to 5000 | CC(C)Oc1ccc(-c2nsc(Nc3ncccc3C(N)=O)n2)nc1 [Compound 164, 2-(3-(5-isoprop-oxypyridin-2-yl)-1,2,4-thiadiazol-5-ylamino) nicotinamide] | – |
| 500 to 5000 | CC(C)Oc1ccc(-c2noc(Nc3ncccc3N(C)C)n2)nc1 [Compound 133, N2-(3-(5-is-opropoxy-pyridin-2-yl)-1,2,4-oxadiazol-5-yl)-N3,N3-dimethyl-pyridine-2,3-diamine] | – |
| 500 to 5000 | CC(C)Oc1cnc(-c2nsc(Nc3ncccc3N(C)C)n2)cn1 [Compound 126, N2-(3-(5-iso-propoxypyrazin-2-yl)-1,2,4-thiadiazol-5-yl)-N3,N3-dimethylpyridine-2,3-diamine] | – |
| 500 to 5000 | Cc1cccnc1Nc1nc(-c2ccc(S(C)(=O)=O)cn2)ns1 [Compound 79, N-(3-methyl-pyridin-2-yl)-3-(5-(methyl-sulfonyl)pyridin-2-yl)-1,2,4-thiadiazol-5-amine] | – |
| 200 to 500 | CC(C)Oc1cnc(-c2nsc(Nc3ncccc3C(C)C)n2)cc1C(=O)N(C)C [Compound 193, 5-isopropoxy-2-(5-(3-isopropylpyridin-2-ylamino)-1,2,4-thiadiazol-3-yl)-N,N-dimethy-lisonicotinamide] | – |
| < 200 | CN(C)c1cccnc1Nc1nc(-c2cc(C(F)(F)F)c(OC3CC3)cn2)ns1 [Compound 111, N2-(3-(5-cyclo-propoxy-4-(trifluoromethyl)pyridin-2-yl)-1,2,4-thiadiazol-5-yl)-N3,N3-dimethyl-pyridine-2,3-diamine] | – |
| < 200 | CN(C)c1cccnc1Nc1nc(-c2ccc(OC3CCN(C4CC4)CC3(F)F)cn2)ns1 (centres unmarked) [Compound 123, N2-(3-(5-(1-cyclopropyl-3,3-difluoro-piperidin-4-yloxy)pyridin-2-yl)-1,2,4-thiadiazol-5-yl)-N3,N3-dimethyl-pyridine-2,3-diamine] | – |
| < 200 | Cc1cccnc1-c1nnc(Nc2ccccn2)[nH]1 [Compound 41, N-(5-(3-methyl-pyridin-2-yl)-4H-1,2,4-triazol-3-yl)pyridin-2-amine] | – |
| 500 to 5000 | Cc1cccnc1Nc1nc(-c2ccc(OC3CC4(CCN(C)C4)C3)cn2)ns1 (centres unmarked) [Compound 77, 3-(5-(6-methyl-6-azaspiro [3.4]octan-2-yloxy)pyridin-2-yl)-N-(3-methylpyridin-2-yl)-1,2,4-thiadiazol-5-amine] | – |
| 200 to 500 | COc1ccc(-c2nsc(Nc3ccc(C(C)C)cn3)n2)nc1 [Compound 185, N-(5-isopropyl-pyridin-2-yl)-3-(5-methoxy-pyridin-2-yl)-1,2,4-thiadiazol-5-amine] | – |
